Data taken from patent US11292767B2, “Heterocyclic inhibitors of MCT4” (Vettore, LLC, priority 2016, dated 2022).

Assays:
Type in all cases: in vitro ADME
[1] = Metabolic stability in mouse liver microsomes (in vitro t1/2); conditions: mouse liver microsomes 0.5 mg/mL, 2 μM compound, % remaining at 60 min
Experimental: (§1) Metabolic Stability Assays The following are assays that may be used to evaluate the metabolic stability of compounds of Formula (I) in human, rat, or mouse microsomes. The assays follow a common procedure recited below. 1. […] Two separated experiments were performed as follows. a) With NADPH: 10 μL of 20 mg/mL liver microsomes and 40 μL of 10 mM NADPH were added to the incubations. […] The final concentration of microsomes was 0.5 mg/mL. 3. The reaction was started with the addition of 4 μL of 200 μM control compound or test compound solutions. Verapamil was used as positive control in this study. The final concentration of test compound or control compound was 2 μM. 4. Aliquots of 50 μL were taken from the reaction solution at 0, 15, 30, 45 and 60 min. […] Samples were centrifuged at 3,220 g for 40 minutes. A 90 μL aliquot of the supernatant was mixed with 90 μL of ultra-pure H2O and then used for LC-MS/MS analysis. 5. Data analysis. All calculations were carried out using Microsoft Excel. Peak areas were determined from extracted ion chromatograms. The slope value, k, was determined by linear regression of the natural logarithm of the remaining percentage of the parent drug vs. incubation time curve. The in vitro half-life (in vitro t1/2) was determined from the slope value: in vitro t1/2=−(0.693)/k.

[2] = Metabolic stability in human liver microsomes (in vitro t1/2); conditions: human liver microsomes 0.5 mg/mL, 2 μM compound; for Human microsome % 60 min: % remaining at 60 min
Experimental: as §1

[3] = Metabolic stability in rat liver microsomes (in vitro t1/2); conditions: rat liver microsomes 0.5 mg/mL, 2 μM compound; for Rat microsome % 60 min: % remaining at 60 min
Experimental: as §1

| Mouse microsome % 60 min [1] | Human microsome % 60 min [2] | Rat microsome % 60 min [3] | Human microsome t1/2, min ([2]; in vitro t1/2) | SMILES | Rat microsome t1/2, min ([3]; in vitro t1/2) |
| --- | --- | --- | --- | --- | --- |
| 50% | 43% | – | – | CC(C)COc1cccc(-c2cc(COC(C)(C)C(=O)O)nn2Cc2ccccc2Cl)c1 [Example 27, 2-([1-[(2-Chlorophenyl)methyl]-5-(3-(2-methylpropoxy)phenyl)1H-pyrazol-3-yl]methoxy)-2-methylpropanoic acid] | – |
| 31% | 67% | – | – | CC(C)Oc1cccc(-c2cc(COC(C)(C)C(=O)O)nn2Cc2ccccc2Cl)c1 [Example 35, 2-([1-[(2-Chlorophenyl)methyl]-5-(3-isopropoxyphenyl)1H-pyrazol-3-yl]methoxy)-2-methylpropanoic acid] | – |
| 99% | 85% | – | – | COc1cccc(-c2cc(COC(C)(C)C(=O)O)nn2Cc2ccccc2OC)c1 [Example 36, 2-([5-(3-Methoxyphenyl)-1-[(2-methoxyphenyl)methyl]1H-pyrazol-3-yl]methoxy)-2-methylpropanoic acid] | – |
| 61% | 56% | – | – | COc1cccc(-c2cc(COC(C)(C)C(=O)O)nn2Cc2ccccc2N(C)C)c1 [Example 38, 2-([1-[[2-(Dimethylamino)phenyl]methyl]-5-(3-methoxyphenyl)1H-pyrazol-3-yl]methoxy)-2-methylpropanoic acid] | – |
| 88% | 89% | – | – | CC(C)(OCc1cc(-c2cccc(OC3CC3)c2)n(Cc2ccccc2Cl)n1)C(=O)O [Example 39, 2-([1-[(2-Chlorophenyl)methyl]-5-[3-(cyclopropoxy)phenyl]1H-pyrazol-3-yl]methoxy)-2-methylpropanoic acid] | – |
| 95% | 59% | – | – | COc1cccc(-c2c(C)c(COC(C)(C)C(=O)O)nn2Cc2ccccc2Cl)c1 [Example 54, 2-({1-[(2-Chlorophenyl)methyl]-5-(3-methoxyphenyl)-4-methyl-1H-pyrazol-3-yl}methoxy)-2-methylpropionic acid] | – |
| 84% | 82% | – | – | COc1ccc(-c2cc(COC(C)(C)C(=O)O)nn2Cc2ccccc2Cl)s1 [Example 64, 2-([1-[(2-Chlorophenyl)methyl]-5-(5-methoxythien-2-yl)-1H-pyrazol-3-yl]methoxy)-2-methylpropanoic acid] | – |
| 92% | 78% | – | – | COc1csc(-c2cc(COC(C)(C)C(=O)O)nn2Cc2ccccc2Cl)c1 [Example 65, 2-([1-[(2-Chlorophenyl)methyl]-5-(4-methoxythien-2-yl)-1H-pyrazol-3-yl]methoxy)-2-methylpropanoic acid] | – |
| 83% | 73% | – | – | COc1cc(-c2cc(COC(C)(C)C(=O)O)nn2Cc2ccccc2Cl)cs1 [Example 66, 2-([1-[(2-chlorophenyl)methyl]-5-(5-methoxythien-3-yl)-1H-pyrazol-3-yl]methoxy)-2-methylpropanoic acid] | – |
| 91% | 95% | – | – | CCC(C)(OCc1cc(-c2cccc(OC)c2)n(Cc2ccccc2Cl)n1)C(=O)O (stereo not drawn) [Example 68, 2-([1-[(2-Chlorophenyl)methyl]-5-(3-methoxyphenyl)-1H-pyrazol-3-yl]methoxy)-2-methylbutanoic acid] | – |
| – | 81% | 44% | – | CC[C@](C)(OCc1cc(-c2cccc(OC)c2)n(Cc2ccccc2Cl)n1)C(=O)O [Example 120, (2S)-2-([1-[(2-chlorophenyl)methyl]-5-(3-methoxyphenyl)-1H-pyrazol-3-yl]methoxy)-2-methylbutanoic Acid] | – |
| 81% | 82% | 61% | – | CC[C@@](C)(OCc1cc(-c2cccc(OC)c2)n(Cc2ccccc2Cl)n1)C(=O)O [Example 121, (2R)-2-([1-[(2-chlorophenyl)methyl]-5-(3-methoxyphenyl)-1H-pyrazol-3-yl]methoxy)-2-methylbutanoic Acid] | – |
| 64% | 70% | 70% | – | CC(C)COc1ncc(-c2cc(COC(C)(C)C(=O)O)nn2Cc2ccccc2Cl)s1 [Example 132, 2-([1-[(2-Chlorophenyl)methyl]-5-[2-(2-methylpropoxy)-1,3-thiazol-5-yl]-1H-pyrazol-3-yl]methoxy)-2-methylpropanoic acid] | – |
| 90% | 97% | 91% | – | CC(C)Oc1ncc(-c2cc(COC(C)(C)C(=O)O)nn2Cc2ccccc2Cl)s1 [Example 133, 2-([1-[(2-Chlorophenyl)methyl]-5-[2-(propan-2-yloxy)-1,3-thiazol-5-yl]-1H-pyrazol-3-yl]methoxy)-2-methylpropanoic acid] | – |
| 72% | 80% | 85% | – | CC(C)Cc1ncc(-c2cc(COC(C)(C)C(=O)O)nn2Cc2ccccc2Cl)o1 [Example 134, 2-([1-[(2-Chlorophenyl)methyl]-5-[2-(2-methylpropyl)-1,3-oxazol-5-yl]-1H-pyrazol-3-yl]methoxy)-2-methylpropanoic acid] | – |
| 62% | 67% | 48% | – | COc1cccc(-c2cc(COC(C)(C)C(=O)O)nn2Cc2ccccc2OC(C)C)c1 [Example 140, 2-([5-(3-Methoxyphenyl)-1-[[2-(propan-2-yloxy)phenyl]methyl]-1H-pyrazol-3-yl]methoxy)-2-methylpropanoic acid] | – |
| 37% | 62% | 70% | – | CC(C)(C)COc1cccc(-c2cc(COC(C)(C)C(=O)O)nn2-c2ccccc2N2CCC2)c1 [Example 155, 2-([1-[2-(Azetidin-1-yl)phenyl]-5-[3-(2,2-dimethylpropoxy)phenyl]-1H-pyrazol-3-yl]methoxy)-2-methylpropanoic acid] | – |
| – | 78% | 97% | – | CCn1ncc2ccc(-c3cc(COC(C)(C)C(=O)O)nn3-c3ccccc3Cl)cc21 [Example 157, 2-([1-(2-chlorophenyl)-5-(1-ethyl-1H-indazol-6-yl)-1H-pyrazol-3-yl]methoxy)-2-methylpropanoic acid] | – |
| 81% | 78% | 81% | – | Cn1ncc2cccc(-n3nc(COC(C)(C)C(=O)O)cc3-c3cccc(OCC4CCC4)c3)c21 [Example 168, 2-([5-[3-(cyclobutylmethoxy)phenyl]-1-(1-methyl-1H-indazol-7-yl)-1H-pyrazol-3-yl]methoxy)-2-methylpropanoic acid] | – |
| 87% | 75% | 90% | – | CC(C)(C)COc1cccc(-c2cc(COC(C)(C)C(=O)O)nn2-c2ccccc2Cl)c1 [Example 177, 2-([1-(2-chlorophenyl)-5-[3-(2,2-dimethylpropoxy)phenyl]-1H-pyrazol-3-yl]methoxy)-2-methylpropanoic acid] | – |
| 70% | 66% | 72% | – | CC(C)(OCc1cc(-c2cccc(OCC3CCC3)c2)n(-c2ccccc2Cl)n1)C(=O)O [Example 178, 2-([1-(2-Chlorophenyl)-5-[3-(Cyclobutylmethoxy)phenyl]-1H-pyrazol-3-yl]methoxy)-2-methylpropanoic acid] | – |
| 73% | 66% | 71% | – | CC(C)(OCc1cc(-c2cccc(OC3CC3)c2)n(-c2ccc(F)cc2N2CCC2)n1)C(=O)O [Example 183, 2-([1-[2-(Azetidin-1-yl)-4-fluorophenyl]-5-(3-cyclopropoxyphenyl)-1H-pyrazol-3-yl]methoxy)-2-methylpropanoic acid] | – |
| 92% | – | 87% | ∞ | Cc1ccccc1-n1nc(COC(C)(C)C(=O)O)cc1-c1cccc(OC2CC2)c1 [Example 188, 2-([5-(3-Cyclopropoxyphenyl)-1-(2-methylphenyl)-1H-pyrazol-3-yl]-methoxy)-2-methylpropanoic acid] | – |
| 33% | 62% | 32% | – | CCOc1ccccc1Cn1nc(COC(C)(C)C(=O)O)cc1-c1cc(Cl)cc(OC)c1 [Example 196, 2-([5-(3-Chloro-5-methoxyphenyl)-1-[(2-ethoxyphenyl)methyl]-1H-pyrazol-3-yl]methoxy)-2-methylpropanoic acid] | – |

| SMILES | Mouse microsome % 60 min [1] | Human microsome % 60 min [2] | Rat microsome % 60 min [3] | Human microsome t1/2, min ([2]; in vitro t1/2) | Rat microsome t1/2, min ([3]; in vitro t1/2) |
| --- | --- | --- | --- | --- | --- |
| Cn1ncc2cccc(-n3nc(COC(C)(C)C(=O)O)cc3-c3cccc(OC4CCC4)c3)c21 [Example 166, 2-([5-(3-Cyclobutoxyphenyl)-1-(1-methyl-1H-indazol-7-yl)-1H-pyrazol-3-yl]methoxy)-2-methylpropanoic acid] | 82% | 94% | – | – | ∞ |
